Experimental data published in patent US12208080B2, “Compositions and methods for modulation of extracellular vesicle release and treatment of neurological disorders” (GEORGE MASON RESEARCH FOUNDATION, INC., priority 2018, dated 2025).
Where a name gives a salt, the structure may show the parent alone.

Legend:
Format in all cases: cell-based
[1] = system: autophagy proteins (p62, LC3, ATG12-ATG5, ATG12, Beclin-1) in U1 cells; experiment: Autophagy protein profile, CBD versus autophagy drugs, in U1 cells and their EVs (Western blot); conditions: 5 days; for EV-associated LC3 II / EV-associated LC3 I / EV-associated p62: Bafilomycin A1 50 nM, SB 203580 20 μM, Wortmannin 2 nM; for EV-associated LC3 II: vs untreated infected control; for EV-associated LC3 I / EV-associated p62: CBD 10 μM, lower panel
Description: FIGS. 18A-18B are gels showing CBD promotes autophagy turnover, resulting in a decrease in extracellular autophagosomal secretion. A) U1 cells (1×10^6) were treated±CBD (10 μM) for the following incubation periods: 0, 6, 24, and 48 hours. Cells were pelleted and lysed, exosomes from supernatants were enriched with NT80/82 beads overnight at 4° C. Samples were run through SDS-PAGE and western blotted for autophagy proteins (p62 and LC3), and Actin. B) U1 cells (1×10^6) were treated±10 μM CBD (every day), Rapamycin (50 nM), INK128 (50 nM), Bafilomycin A1 (50 nM), SB 203580 (20 μM), Wortmannin (2 nM) for a 5-day incubation period. Cells were pelleted and lysed, exosomes from supernatants were enriched using NT80/82 beads overnight at 4° C. Samples were run through SDS-PAGE and western blotted for autophagy proteins (p62, LC3, ATG12-ATG5, ATG12, Beclin-1), and Actin.
FIGS. 21A-21K are graphs showing normalized densitometry analysis of CBD and autophagy drug treatment on HIV-1 infected monocytes. Intracellular (A) p62, (B) LC3 I, (C) LC3 II, (D) ATG12-ATG5 complex, (E) ATG12, and (F) Beclin-1, and extracellular (G) p62, (H) LC3 I, (I) LC3 II, (J) ATG12-ATG5 complex, and (K) Beclin-1 densitometry counts were calculated from the Western blot data in FIG. 5B, normalized to respective intracellular and extracellular Actin levels, and plotted.
To determine the specific points at which CBD inhibits intracellular and extracellular autophagosome formation and secretion, we compared CBD treatment of U1 monocytes with known inhibitors of different points in the autophagy pathway. Cell viability was assessed among a panel of titrated autophagy drugs and the least toxic concentration per drug was utilized (FIG. 20). We treated U1 cells with CBD (10 μM) every day, Rapamycin (50 nM), INK128 (50 nM), Bafilomycin A1 (50 nM), SB 203580 (20 μM), or Wortmannin (2 nM) for 5 days. Our rationale for using these drugs was that they regulate different steps of autophagy including nucleation inhibition by inhibiting MTOR activity (Rapamycin, INK128) or by inhibiting pre-autophagosomal VPS34 complex activity (Wortmannin, SB 203580), and autophagosome-lysosome fusion inhibition (Bafilomycin A1). Therefore, a side-by-side comparison to CBD would potentially allow for a better definition of which step of autophagosome formation is primarily regulated by CBD. U1 cells were treated with the autophagy regulators and harvested along with their corresponding supernatants for further analysis using Western blot against p62, LC3, ATG12-ATG5 complex, free ATG12, Beclin-1, and Actin. Results in FIG. 18B (intracellular proteins, top panel) show autophagy protein profiles associated with the various autophagy regulators. […] The corresponding supernatants were enriched for EVs and also analyzed for the presence of autophagy proteins.

[2] = system: RNA polymerase II (Pol II) loading; experiment: Chromatin immunoprecipitation of Pol II, qPCR for TAR DNA; conditions: U1; CBD 10 μM, Flavo 50 nM; 2-hour and 6-hour; FIG. 15C
Description: FIGS. 15A-15C are graphs and gels showing cannabidiols lower intracellular viral transcription and downstream viral products. U1 cells (1×10^6) were treated with a titration of CBD (1, 5, 10 μM) and THC (1, 5, 10 μg/mL) every day for 5 days. A) Intracellular RNA was isolated and analyzed through RT-qPCR for HIV-1 viral transcripts TAR and env. Each bar represents an average of three independent replicates. B) U1 cells (2×10^6) were treated with a titration of CBD (1, 5, 10 μM) every day for 5 days. Cells pellets were lysed, run through SDS-PAGE, and western blotted for (p-)/NF-κB, autophagosomal markers (p63, LC3), EV biogenesis marker VPS4, viral markers (gp120, Nef, p24), and Actin. C) U1 cells (5×10^6) were treated±CBD (10 μM) and Flavopiridol hydrochloride (50 nM; indicated as Flavo) and incubated for the following time points: 0 minutes, 2 hours and 6 hours. Cells were cross-linked with 1% formaldehyde solution and ChIP-ed for IgG and Pol II. ChIP DNA samples were analyzed via qPCR for TAR and env. Student's t-test was used for statistical analysis, where *p-value≤0.05; **p-value≤0.01, ***p-value≤0.001. […]
U1 monocytes were treated with CBD (10 μM) and Flavo (50 nM) for short periods (0, 2 and 6 hours) due to the fact that HIV-1 transcription activity is a rapid event that can be scored using chromatin immunoprecipitation (ChIP) assay for factor occupancy. […]

[3] = system: HTLV-1 infected T-cells (HUT 102); experiment: EV release from HTLV-1 infected T-cells, Western blot for Tax, CD63, CD9; conditions: 10 μM AZT, 10K units IFN-α or both, 5 days, FIG. 6
Description: HTLV-1 infected T-cells (HUT 102) were treated with 10 μM AZT, 10K units of IFN-α, or a combination of the two for 5 days. Resulting supernatants were enriched for extracellular vesicles using NT80/82 and analyzed by Western blot for the presence of Tax, CD63, CD9, and Actin.
The incorporation of the human T-lymphotropic virus type 1 (HTLV-1) protein, Tax, into extracellular vesicles has been implicated in enhanced survival of recipient cells thereby contributing to a cancer phenotype. Applicant examined the effect of Azidothymidine (AZT) and interferon-α (IFN-α), both therapeutics commonly used in the treatment of HTLV-1, on the release of EVs from HTLV-1 infected cells. Here, HTLV-1 infected T-cells (HUT 102) were treated with 10 μM AZT, 10K units of IFN-α, or a combination of the two for 5 days. Resulting supernatants were enriched for extracellular vesicles using NT80/82 and analyzed by Western blot for the presence of Tax, CD63, CD9, and Actin.

[4] = system: ESCRT pathway proteins (VPS4); experiment: Western blot of ESCRT pathway proteins in U1 whole cell extracts; conditions: 0.1, 1, 10 μM, 5 days, FIG. 5B
Description: U1 cells were pretreated with cART (45 μM) for 3 days followed by an additional dose of cART and tetracycline antibiotics (10 nM) for 5 days. Cells were lysed, and extracts were used for Western blot analysis for ESCRT proteins [ESCRT-1 (TSG101), -11 (EAP20, EAP45), -III (CHMP6), and exit (VPS4)] and Actin levels. […]
U1 cells were treated with a titration of ethylene glycol-bis(p-aminoethyl ether)-N,N,N′,N′-tetraacetic acid (EGTA) (0.1, 1, and 10 μM) for 5 days and whole cell extracts were analyzed by Western blot for ESCRT pathway proteins and Actin.
Tetracycline class antibiotics including tetracycline, oxytetracycline, minocycline, doxycycline, methacycline, and demeclocycline have the potential to mitigate EV-associated pathogenesis by also modulating EV release. […] The tetracycline antibiotic family are chelators of divalent cations, including Ca2+ and Mg2+. Therefore, Applicant also tried to determine whether the chelating property of Oxytetracycline could possibly be responsible for the manipulation of the ESCRT pathway proteins levels.

[5] = CBD 10 μM every day, Rapamycin 50 nM, INK128 50 nM, FIG. 18B top panel

With `CO/C1=C\C(C)=C\[C@@H](C)[C@@H](O)[C@@H](C)C/C(C)=C/C=C/[C@H](OC)[C@@H]([C@@H](C)[C@@H](O)[C@H](C)[C@@]2(O)C[C@@H](O)[C@H](C)[C@@H](C(C)C)O2)OC1=O` [Bafilomycin A1] the “EV-associated LC3 II” value [1] was “elevated levels”, the “EV-associated LC3 I” value ([1]; Rapamycin 50 nM, INK128 50 nM) was “elevated levels” and the “EV-associated p62” value ([1]; Rapamycin 50 nM, INK128 50 nM) was “sustained levels”.

With `CN1CC[C@H](c2c(O)cc(O)c3c(=O)cc(-c4ccccc4Cl)oc23)[C@H](O)C1` [Flavo, Flavopiridol hydrochloride hydrate] the “Pol II-associated TAR DNA versus untreated” value [2] was “statistically significant decreases”.

In the case of `CC(C)n1nc(-c2ccc3oc(N)nc3c2)c2c(N)ncnc21` [INK128], the “intracellular ATG12-ATG5” value [1, 5] is reported as “low levels”, the “intracellular Beclin-1” value [1, 5] is reported as “high levels” and the “intracellular LC3 I” value [1, 5] is reported as “low levels”. For the same compound, the “EV-associated LC3 I” value ([1]; Rapamycin 50 nM, INK128 50 nM) was “reduction” and the “EV-associated p62” value ([1]; Rapamycin 50 nM, INK128 50 nM) was “reduction”.

`Cc1cn([C@H]2C[C@H](N=[N+]=[N-])[C@@H](CO)O2)c(=O)[nH]c1=O` [AZT, 3′-azido-2′3′-di deoxythymidine] was tested, and the “amount of vesicles released (CD63 and CD9)” value [3] was “increase in the amount of vesicles release”.

For `O=C(O)CN(CCOCCOCCN(CC(=O)O)CC(=O)O)CC(=O)O` [EGTA, ethylene glycol-bis(p-aminoethyl ether)-N,N,N′,N′-tetraacetic acid], the “levels of measured ESCRT proteins” value [4] was “no change”.

With IFN-α the “amount of vesicles released (CD63 and CD9)” value [3] was “decreases the amount of vesicles released”.

`C[S+]([O-])c1ccc(-c2nc(-c3ccncc3)c(-c3ccc(F)cc3)[nH]2)cc1` (stereo not drawn) [SB 203580] was tested, and the “EV-associated LC3 II” value [1] was “elevated levels”, the “EV-associated LC3 I” value ([1]; Rapamycin 50 nM, INK128 50 nM) was “elevated levels” and the “EV-associated p62” value ([1]; Rapamycin 50 nM, INK128 50 nM) was “sustained levels”.
